Test results as given in patent US5320094A (The Johns Hopkins University, priority 1992, dated 1994).
Several values for one entry are separate records, joined by “and”; a condition that tells them apart may be missing. Equal values may be shown once. Read-outs that look alike come from different tables or passages of the source.

Tests used:
[1] = test system: normal and non-insulin-dependent non-obese diabetic subjects; conditions: rectal suppository; cited from earlier work
[2] = test system: diabetic subjects; conditions: intranasal bile-salt aerosol; cited from earlier work
[3] = for Peak Insulin Level: fasting
Text: The timing of each aerosol actuation was controlled by a Rosenthal-French dosimeter and lasted for one second. […] Inspiratory flow rate at the time of aerosol inhalation was regulated to less than 30 and, preferably about 17 liters/minute by rate limiting orifices of the type described above. During inhalation, patients inspired from residual volume to total lung capacity.
After the sixth actuation, aerosol was inhaled from the holding chamber through a mouthpiece. […]
To accomplish this dosing regime, volunteers inhaled 5-13 times from the holding chamber. Each inhalation was preceded by six actuations of the nebulizer.
(§1) Subjects 3, 4 and 6 were medicated with Glyburide 10 mg/day, 15 mg/day, and 5 mg/day, respectively. Subject No. 5 was treated with Diabinese 750 mg/day. Subject No. 7 was medicated with Glyburide 20 mg/day and Subject No. 8 was unmedicated. […] Blood samples were assessed at the time of collection for glucose levels with a glucose meter (Accuchek). Determinations of plasma glucose levels were also obtained from photometric reaction with glucose hexokinase using an Hitachi 736 and 737 chemical analyzer (Boehringer Mannheim Diagnostics). The reference range for fasting adults using this technique and equipment is 3.92-6.44 SI units. […] The expected range of values for normals in the fasting state, as provided by Diagnostics Products Corp., is 18-210 SI units. An IV saline solution was running, 50% glucose was available in case the blood glucose level decreased rapidly, and a diabetologist was present during the study. […] Studies were performed in the Johns Hopkins Outpatient Clinical Research Center. All patients who participated in these experiments gave informed consent to a written description of the study, which was approved by the Institutional Review Board.
When averaging decreases in blood glucose levels the data were normalized in terms of percent change from baseline.

[4] = test system: normal subjects and non-insulin dependent diabetic (NIDDM) subjects; experiment: Blood glucose response after inhalation of aerosolized insulin; type: in vivo, human; conditions: for Maximum Decrease in Glucose (% of Baseline): fasting
Text: The timing of each aerosol actuation was controlled by a Rosenthal-French dosimeter and lasted for one second. […] The distance between the subject's mouth and the nebulizer reduced aerosol velocity and, thus, impaction of particles in the mouth. Inspiratory flow rate at the time of aerosol inhalation was regulated to less than 30 and, preferably about 17 liters/minute by rate limiting orifices of the type described above. During inhalation, patients inspired from residual volume to total lung capacity.
After the sixth actuation, aerosol was inhaled from the holding chamber through a mouthpiece. […] Each inhalation was proceeded by six actuations of the nebulizer.

[5] = test system: normal and NIDDM subjects; conditions: inhaled
Protocol: as §1

[6] = test system: rabbits; conditions: micellar form, intrajejunal administration, reduction in blood glucose; cited from earlier work
[7] = NIDDM subject 3, 0.21 U/kg BW inhaled
[8] = NIDDM subject 4, 0.23 U/kg BW inhaled
[9] = NIDDM subject 5, 0.21 U/kg BW inhaled
[10] = NIDDM subject 6, 0.20 U/kg BW inhaled
[11] = NIDDM subject 7, 0.20 U/kg BW inhaled
[12] = NIDDM subject 8, 0.20 U/kg BW inhaled
[13] = eight subjects (second dose for subjects 1 and 2), mean dose 0.21 U/kg BW inhaled
[14] = normal subject 1, first dose, 0.09 U/kg BW inhaled
[15] = normal subject 1, second dose, 0.19 U/kg BW inhaled
[16] = normal subject 2, first dose, 0.11 U/kg BW inhaled
[17] = normal subject 2, second dose, 0.21 U/kg BW inhaled

insulin: regular U-500 pork insulin (Eli Lilly) aerosolized by a jet nebulizer; background citations concern insulin given by other routes
Complaints after rectal administration [1]: some subjects complained of abdominal discomfort or a feeling of rectal urgency | Dose necessary to lower blood glucose significantly, relative to subcutaneous dose [1]: 10 times | Amount of insulin absorbed through the nasal mucosa, relative to dose delivered by intravenous injection [2]: approximately 10% | Dose required to lower blood glucose, relative to subcutaneous dose [2]: 2.5 times | Local effects after intranasal administration [2]: subjects reported nasal irritation and nasal congestion | Time to Peak Insulin Level [3, 7]: 5 min | log Peak Insulin Level [3, 7]: 2.7694 | Peak Insulin Level [3, 7]: 588 SI units | Time to Peak Insulin Level [3, 8]: 15 min | log Peak Insulin Level [3, 8]: 2.2967 | Peak Insulin Level [3, 8]: 198 SI units | Time to Peak Insulin Level [3, 9]: 40 min | log Peak Insulin Level [3, 9]: 2.3096 | Peak Insulin Level [3, 9]: 204 SI units | Time to Peak Insulin Level [3, 10]: 52 min | log Peak Insulin Level [3, 10]: 2.3909 | Peak Insulin Level [3, 10]: 246 SI units | Time to Peak Insulin Level [3, 11]: 25 min | log Peak Insulin Level [3, 11]: 2.0569 | Peak Insulin Level [3, 11]: 114 SI units | Time to Peak Insulin Level [3, 12]: 100 min | log Peak Insulin Level [3, 12]: 2.7513 | Peak Insulin Level [3, 12]: 564 SI units | Return of blood insulin levels to baseline ([3]; approximately 0.2 U/kg BW inhaled, up to 200 minutes): did not return to baseline by the time the experiment was concluded in seven of the study subjects | Peak Insulin Level, geometric mean [3, 13]: 254 SI units | Time to Peak Insulin Level, mean [3, 13]: 35 min and 35 ± 31 min | log Peak Insulin Level, mean [3, 13]: 2.4055 | Insulin absorption across the lung mucosa compared with subcutaneous administration ([3]; inhaled aerosol): more rapid than following subcutaneous administration | Time to Peak Insulin Level [3, 14]: 10 min | log Peak Insulin Level [3, 14]: 2.1399 | Peak Insulin Level [3, 14]: 138 SI units | Time to Peak Insulin Level [3, 15]: 35 min | log Peak Insulin Level [3, 15]: 2.3345 | Peak Insulin Level [3, 15]: 216 SI units | Time to Peak Insulin Level [3, 16]: 5 min | log Peak Insulin Level [3, 16]: 2.4771 | Peak Insulin Level [3, 16]: 300 SI units | Time to Peak Insulin Level [3, 17]: 5 min | log Peak Insulin Level [3, 17]: 2.3345 | Peak Insulin Level [3, 17]: 216 SI units | Time at which blood insulin levels peaked post inhalation, range ([3]; range over all subjects and doses): between five and one hundred minutes | Time to 10% Decrease in Glucose [4, 7]: 30 min | Time to Lowest Glucose Level [4, 7]: 150 min | Maximum Decrease in Glucose (% of Baseline) [4, 7]: 43% | Glucose level decreased to, after insulin inhalation ([4]; NIDDM subject 3, 0.21 U/kg BW inhaled, baseline 10.58): 6.05 SI units | Time to 10% Decrease in Glucose [4, 8]: 30 min | Time to Lowest Glucose Level [4, 8]: 160 min | Maximum Decrease in Glucose (% of Baseline) [4, 8]: 71% | Glucose level decreased to, after insulin inhalation ([4]; NIDDM subject 4, 0.23 U/kg BW inhaled, baseline 16.58): 4.82 SI units | Time to 10% Decrease in Glucose [4, 9]: 40 min | Time to Lowest Glucose Level [4, 9]: 200 min | Maximum Decrease in Glucose (% of Baseline) [4, 9]: 53% | Glucose level decreased to, after insulin inhalation ([4]; NIDDM subject 5, 0.21 U/kg BW inhaled, baseline 12.12): 5.71 SI units | Time to 10% Decrease in Glucose [4, 10]: 42 min | Time to Lowest Glucose Level [4, 10]: 140 min | Maximum Decrease in Glucose (% of Baseline) [4, 10]: 54% | Glucose level decreased to, after insulin inhalation ([4]; NIDDM subject 6, 0.20 U/kg BW inhaled, baseline 9.27): 4.26 SI units | Time to 10% Decrease in Glucose [4, 11]: 20 min | Time to Lowest Glucose Level [4, 11]: 120 min | Maximum Decrease in Glucose (% of Baseline) [4, 11]: 61% | Glucose level decreased to, after insulin inhalation ([4]; NIDDM subject 7, 0.20 U/kg BW inhaled, baseline 13.94): 5.49 SI units | Time to 10% Decrease in Glucose [4, 12]: 60 min | Time to Lowest Glucose Level [4, 12]: 150 min | Maximum Decrease in Glucose (% of Baseline) [4, 12]: 49% | Glucose level decreased to, after insulin inhalation ([4]; NIDDM subject 8, 0.20 U/kg BW inhaled, baseline 13.30): 6.78 SI units | Mean maximum decrease in glucose from baseline ([4]; NIDDM subjects, 0.2 U/kg BW inhaled): 55±10% | Shift of blood glucose levels to the normal range ([4]; NIDDM subjects, approximately 0.2 U/kg BW aerosolized insulin, normal range 4.20-6.44 SI units): shifted blood glucose levels of five of the six NIDDM subjects to within the normal range | Maximum Decrease in Glucose (% of Baseline), mean ([4]; eight subjects (second dose for subjects 1 and 2), 0.2 U/kg BW inhaled): 52±10% and 52% | Time to 10% Decrease in Glucose, mean [4, 13]: 36 ± 15 min and 36 min | Time to Lowest Glucose Level (time to maximum decrease in blood glucose), mean [4, 13]: 138 ± 46 min and 138 min | Glucose level decreased to, after insulin inhalation ([4]; normal subject 1, 0.09 U/kg BW inhaled, baseline 4.70): 4.09 SI units | Glucose level decreased to, after insulin inhalation ([4]; normal subject 1, 0.19 U/kg BW inhaled, baseline 4.70): 3.08 SI units | Time to 10% Decrease in Glucose [4, 14]: 35 min | Time to Lowest Glucose Level [4, 14]: 80 min | Maximum Decrease in Glucose (% of Baseline) [4, 14]: 13% | Time to 10% Decrease in Glucose [4, 15]: 50 min | Time to Lowest Glucose Level [4, 15]: 140 min | Maximum Decrease in Glucose (% of Baseline) [4, 15]: 34% | Glucose level decreased to, after insulin inhalation ([4]; normal subject 2, 0.11 U/kg BW inhaled, baseline 3.95): 3.14 SI units | Glucose level decreased to, after insulin inhalation ([4]; normal subject 2, 0.21 U/kg BW inhaled, baseline 4.34): 2.24 SI units | Time to 10% Decrease in Glucose [4, 16]: 5 min | Time to Lowest Glucose Level [4, 16]: 40 min | Maximum Decrease in Glucose (% of Baseline) [4, 16]: 20% | Time to 10% Decrease in Glucose [4, 17]: 15 min | Time to Lowest Glucose Level [4, 17]: 40 min | Maximum Decrease in Glucose (% of Baseline) [4, 17]: 48% | Mean maximum decrease in glucose from baseline ([4]; normal subjects, 0.2 U/kg BW inhaled): 41±10% | Effect on blood glucose levels ([4]; normal subjects, approximately 0.2 U/kg BW aerosolized insulin to the mouth): effectively lowered blood glucose levels in the normal subjects | Adverse symptoms from the respiratory tract [5]: No adverse symptoms from the respiratory tract were reported or signs observed | Adrenergic, hypoglycemic signs or symptoms ([5]; listed as Aerosolized insulin): lack of any signs or symptoms, including adrenergic symptoms | Tolerability of aerosolized insulin ([5]; listed as Aerosolized insulin): very well tolerated | Tolerability of aerosolized insulin ([5]; listed as aerosolized insulin): well-tolerated | Adrenergic, hypoglycemic signs or symptoms ([5]; listed as insulin aerosol): none of the subjects had adrenergic, hypoglycemic symptoms | Tolerability of aerosolized insulin ([5]; listed as insulin aerosol): well-tolerated | Required dose relative to intramuscular dose [6]: 25-50 times
